Measurements taken from the supplement of paper PMC10307832.

Assays:
Experiment in all cases: relative viability (nuclei count vs DMSO), 5 days (fraction); higher = more cells survive
[1] = compound: CC(C)(C)c1nc(-c2cccc(NS(=O)(=O)c3c(F)cccc3F)c2F)c(-c2ccnc(N)n2)s1 [Dabrafenib] + CS(=O)(=O)N1CCN(Cc2cc3nc(-c4cccc5[nH]ncc45)nc(N4CCOCC4)c3s2)CC1 [Pictilisib] (partner 1 µM)
Summary of the method: (§1)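 A single step with final 0.05% Triton X-100, 1% formaldehyde and 1 ug/ml Hoechst fixed the cells and stained nuclei 5 days after treatment. Lung cancer cell lines in 1536-well plates had been treated by pin tool the day after seeding with one drug alone or a fixed anchor-drug dose plus five library-drug doses (not always all listed) in √10 steps, and nuclei were counted on 4× images. Relative viability is the ratio of nuclei in treated wells to nuclei in vehicle wells, taken as the median of duplicate plates.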

[2] = compound: CC(C)(C)c1nc(-c2cccc(NS(=O)(=O)c3c(F)cccc3F)c2F)c(-c2ccnc(N)n2)s1 [Dabrafenib] + CC(=O)Nc1cccc(-n2c(=O)n(C3CC3)c(=O)c3c(Nc4ccc(I)cc4F)n(C)c(=O)c(C)c32)c1 [Trametinib] (partner 0.02 µM)
Summary of the method: as §1

[3] = compound: CC(C)(C)c1nc(-c2cccc(NS(=O)(=O)c3c(F)cccc3F)c2F)c(-c2ccnc(N)n2)s1 [Dabrafenib] + NC(=O)Nc1cc(-c2cccc(F)c2)sc1C(=O)N[C@H]1CCCNC1 [AZD7762] (partner 0.2 µM)
Summary of the method: as §1

[4] = compound: NC(=O)c1ccc(N(C(N)=O)c2c(F)cccc2F)nc1-c1ccc(F)cc1F [VX-702] + N=C(N)NC(=N)NCCc1ccccc1 [Phenformin] (partner 250 µM)
Summary of the method: as §1

## IA-LM
[1]; first compound 0.003 µM
  relative viability: 0.379
[1]; first compound 0.009487 µM
  relative viability: 0.569
[1]; first compound 0.03 µM
  relative viability: 0.444
[1]; first compound 0.09487 µM
  relative viability: 0.412
[1]; first compound 0.3 µM
  relative viability: 0.255

## NCI-H522
[2]; first compound 0.009487 µM
  relative viability: 0.829
[2]; first compound 0.03 µM
  relative viability: 0.753
[2]; first compound 0.09487 µM
  relative viability: 0.682
[2]; first compound 0.3 µM
  relative viability: 0.792
[3]; first compound 0.009487 µM
  relative viability: 0.936
[3]; first compound 0.03 µM
  relative viability: 0.717
[3]; first compound 0.09487 µM
  relative viability: 0.88
[3]; first compound 0.3 µM
  relative viability: 0.841
[4]; first compound 0.02 µM
  relative viability: 0.584
[4]; first compound 0.2 µM
  relative viability: 0.691
[4]; first compound 0.6325 µM
  relative viability: 0.611
[4]; first compound 2 µM
  relative viability: 0.672

## H3255
[2]; first compound 0.003 µM
  relative viability: 0.641
[2]; first compound 0.009487 µM
  relative viability: 0.584
[2]; first compound 0.03 µM
  relative viability: 0.668
[2]; first compound 0.09487 µM
  relative viability: 0.639
[2]; first compound 0.3 µM
  relative viability: 0.789
[1]; first compound 0.003 µM
  relative viability: 0.394
[1]; first compound 0.009487 µM
  relative viability: 0.566
[1]; first compound 0.03 µM
  relative viability: 0.43
[1]; first compound 0.09487 µM
  relative viability: 0.405
[1]; first compound 0.3 µM
  relative viability: 0.462
[3]; first compound 0.003 µM
  relative viability: 0.791
[3]; first compound 0.009487 µM
  relative viability: 0.94
[3]; first compound 0.03 µM
  relative viability: 0.908
[3]; first compound 0.09487 µM
  relative viability: 0.758
[3]; first compound 0.3 µM
  relative viability: 1.16
[4]; first compound 0.02 µM
  relative viability: 0.352
[4]; first compound 0.2 µM
  relative viability: 0.344
[4]; first compound 0.6325 µM
  relative viability: 0.371
[4]; first compound 2 µM
  relative viability: 0.386

## NCI-H838
[2]; first compound 0.003 µM
  relative viability: 0.51
[2]; first compound 0.009487 µM
  relative viability: 0.614
[2]; first compound 0.03 µM
  relative viability: 0.428
[2]; first compound 0.09487 µM
  relative viability: 0.429
[2]; first compound 0.3 µM
  relative viability: 0.506
[1]; first compound 0.003 µM
  relative viability: 0.394
[1]; first compound 0.009487 µM
  relative viability: 0.563
[1]; first compound 0.03 µM
  relative viability: 0.421
[1]; first compound 0.09487 µM
  relative viability: 0.447
[1]; first compound 0.3 µM
  relative viability: 0.385
[3]; first compound 0.003 µM
  relative viability: 0.993
[3]; first compound 0.009487 µM
  relative viability: 0.885
[3]; first compound 0.03 µM
  relative viability: 0.91
[3]; first compound 0.09487 µM
  relative viability: 0.889
[3]; first compound 0.3 µM
  relative viability: 0.89
[4]; first compound 0.02 µM
  relative viability: 0.607
[4]; first compound 0.2 µM
  relative viability: 0.609
[4]; first compound 0.6325 µM
  relative viability: 0.557
[4]; first compound 2 µM
  relative viability: 0.669

## NCI-H1993
[2]; first compound 0.003 µM
  relative viability: 0.53
[2]; first compound 0.009487 µM
  relative viability: 0.474
[2]; first compound 0.03 µM
  relative viability: 0.508
[2]; first compound 0.09487 µM
  relative viability: 0.687
[2]; first compound 0.3 µM
  relative viability: 0.621
[1]; first compound 0.003 µM
  relative viability: 0.811
[1]; first compound 0.009487 µM
  relative viability: 0.789
[1]; first compound 0.03 µM
  relative viability: 0.723
[1]; first compound 0.09487 µM
  relative viability: 0.625
[1]; first compound 0.3 µM
  relative viability: 0.728
[3]; first compound 0.003 µM
  relative viability: 0.555
[3]; first compound 0.009487 µM
  relative viability: 0.968
[3]; first compound 0.03 µM
  relative viability: 0.792
[3]; first compound 0.09487 µM
  relative viability: 0.716
[3]; first compound 0.3 µM
  relative viability: 0.826
[4]; first compound 0.02 µM
  relative viability: 0.498
[4]; first compound 0.2 µM
  relative viability: 0.493
[4]; first compound 0.6325 µM
  relative viability: 0.518
[4]; first compound 2 µM
  relative viability: 0.562

## SK-MES-1
[2]; first compound 0.009487 µM
  relative viability: 0.653
[2]; first compound 0.03 µM
  relative viability: 0.747
[2]; first compound 0.09487 µM
  relative viability: 0.712
[2]; first compound 0.3 µM
  relative viability: 0.827
[1]; first compound 0.003 µM
  relative viability: 0.363
[1]; first compound 0.009487 µM
  relative viability: 0.416
[1]; first compound 0.03 µM
  relative viability: 0.269
[1]; first compound 0.09487 µM
  relative viability: 0.376
[1]; first compound 0.3 µM
  relative viability: 0.377
[4]; first compound 0.02 µM
  relative viability: 0.678
[4]; first compound 0.2 µM
  relative viability: 0.663
[4]; first compound 0.6325 µM
  relative viability: 0.725
[4]; first compound 2 µM
  relative viability: 0.73

## NCI-H661
[2]; first compound 0.003 µM
  relative viability: 0.562
[2]; first compound 0.009487 µM
  relative viability: 0.527
[2]; first compound 0.03 µM
  relative viability: 0.59
[2]; first compound 0.09487 µM
  relative viability: 0.556
[2]; first compound 0.3 µM
  relative viability: 0.568
[1]; first compound 0.003 µM
  relative viability: 0.283
[1]; first compound 0.009487 µM
  relative viability: 0.376
[1]; first compound 0.09487 µM
  relative viability: 0.34
[1]; first compound 0.3 µM
  relative viability: 0.48
[4]; first compound 0.02 µM
  relative viability: 0.296
[4]; first compound 0.2 µM
  relative viability: 0.329
[4]; first compound 0.6325 µM
  relative viability: 0.298
[4]; first compound 2 µM
  relative viability: 0.299

## NCI-H1650
[2]; first compound 0.003 µM
  relative viability: 0.671
[2]; first compound 0.009487 µM
  relative viability: 0.609
[2]; first compound 0.03 µM
  relative viability: 0.552
[2]; first compound 0.09487 µM
  relative viability: 0.666
[2]; first compound 0.3 µM
  relative viability: 0.673
[1]; first compound 0.003 µM
  relative viability: 0.401
[1]; first compound 0.009487 µM
  relative viability: 0.841
[1]; first compound 0.03 µM
  relative viability: 0.404
[1]; first compound 0.09487 µM
  relative viability: 0.647
[1]; first compound 0.3 µM
  relative viability: 0.814
[4]; first compound 0.02 µM
  relative viability: 0.542
[4]; first compound 0.2 µM
  relative viability: 0.625
[4]; first compound 0.6325 µM
  relative viability: 0.411
[4]; first compound 2 µM
  relative viability: 0.468

## ABC-1
[1]; first compound 0.009487 µM
  relative viability: 0.86
[1]; first compound 0.03 µM
  relative viability: 0.823
[1]; first compound 0.09487 µM
  relative viability: 0.778
[1]; first compound 0.3 µM
  relative viability: 0.822
[3]; first compound 0.003 µM
  relative viability: 0.345
[3]; first compound 0.009487 µM
  relative viability: 0.638
[3]; first compound 0.03 µM
  relative viability: 0.823
[3]; first compound 0.09487 µM
  relative viability: 0.789
[3]; first compound 0.3 µM
  relative viability: 0.597
[4]; first compound 0.02 µM
  relative viability: 0.214
[4]; first compound 0.2 µM
  relative viability: 0.201
[4]; first compound 0.6325 µM
  relative viability: 0.229
[4]; first compound 2 µM
  relative viability: 0.228
